Several values for one entry are separate records, joined by “and”; a condition that tells them apart may be missing. Equal values may be shown once. Entries after “also recorded” stand apart in the source; their conditions may differ. Read-outs that look alike come from different tables or passages of the source.
Experiments:
in vivo [1] = conditions: rat, po
[2] = Antiphlogistic effect, carrageenin-oedema test (Series 1, Table 3)
Description: The antiphlogistic effects were studied on Wistar rats of both sexes, animal subjects found to be particularly prone to indomethacin ulcerogenisis, each weighing 100 to 150 g. The animals were starved for 24 hours, and then 0.1 ml portions of a 1% carrageenin solution were injected under mild ether anaesthesia into the plantar region of one of the hind paws in order to provoke inflammation (oedema). The antiphlogistic agent or a combination thereof was introduced into the stomach of the animals via a stomach tube immediately before injecting the carrageenin solution. 4 hours after this treatment the animals were sacrificed, and both hind paws were amputated above the ankles. The paws were weighed, and the oedema weight was calculated from the weight difference of the treated and untreated paws.

in vivo [3] = conditions: rat, po; remark: listed apart in the source
prostaglandin synthesis = conditions: listed as Na-salicylate; cited from earlier work
[4] = Gastric ulcerogenic side-effects, starved rats (Series 1, Tables 1 and 2); conditions: for No. of ulcer/stomach / Ulcer-free animals % / Ulcer-free animals No.: 4 h
[5] = rat, in vivo; for ED50 at 180 min: po
[6] = rat, in vivo; for Analgesic ED50 / Therapeutical index LD50/ED50 (C): po
[7] = rat, in vivo
in vivo [8] = conditions: rat, po; remark: listed apart in the source
[9] = 3-day gastrointestinal side-effect test on non-starved animals (Table 4); assay type: in vivo, rats
Description: In the following tests animals treated for 3 days with various combinations of indomethacin and sodium salicylate were examined. The non-starved test animals were treated orally for 3 days with compositions containing 20 mg/kg of indomethacin and increasing amounts of sodium salicylate.

[10] = general statement; cited from earlier work
[11] = treated subsequently with Na-salicylate; cited from earlier work
[12] = rat, in vivo; remark: listed apart in the source
in vivo [13] = conditions: rat, po; remark: listed apart in the source
[14] = indomethacin 3 × 20 mg/kg p.o. alone

O=C([O-])c1ccccc1O.[Na+] [Sodium salicylate]
selectivity ratio (in vivo [1]): 7.5
Oedema-inhibiting effect % ([2]; sodium salicylate 50 mg/kg p.o. alone): 15%
Oedema-inhibiting effect % ([2]; sodium salicylate 100 mg/kg p.o. alone): 43%
LD50 (in vivo [3]): 2400 mg/kg
inhibition of prostaglandin synthesis (prostaglandin synthesis): except Na-salicylate; also recorded: practically ineffective as a prostaglandin inhibitor
No. of ulcer/stomach ([4]; 50 mg/kg p.o.): 0.1 ulcer/stomach
Ulcer-free animals % ([4]; 50 mg/kg p.o.): 82%
Ulcer-free animals No. ([4]; 50 mg/kg p.o.): 37 No.
No. of ulcer/stomach ([4]; 100 mg/kg p.o.): 0.1 ulcer/stomach
Ulcer-free animals % ([4]; 100 mg/kg p.o.): 96%
Ulcer-free animals No. ([4]; 100 mg/kg p.o.): 27 No.
No. of ulcer/stomach ([4]; 200 mg/kg p.o.): 1.2 ulcer/stomach
Ulcer-free animals % ([4]; 200 mg/kg p.o.): 50%
Ulcer-free animals No. ([4]; 200 mg/kg p.o.): 37 No.
No. of ulcer/stomach ([4]; 400 mg/kg p.o.): 1.1 ulcer/stomach
Ulcer-free animals % ([4]; 400 mg/kg p.o.): 71%
Ulcer-free animals No. ([4]; 400 mg/kg p.o.): 32 No.
gastrointestinal hemorrhagic or ulcerogenic side-effects of other non-steroidal antiphlogistic agents, specifically indomethacin ([4]; Series 1 discussion): antangonizes the gastrointestinal hemmorhagic or ulcerogenic side-effects
ED50 at 180 min [5]: 320 mg/kg
Analgesic ED50 [6]: 513 mg/kg
Therapeutical index LD50/ED50 (C) [6]: 4.6

CC(=O)Oc1ccccc1C(=O)O [Aspirin, acetylsalicylic acid]
main antiphlogistic effects when administered together with sodium salicylate [2]: remain unchanged, or even the antiphlogistic effects of the two active agents are superimposed
ulcerogenic side-effects when administered together with sodium salicylate [7]: can also be antagonized effectively

COc1ccc2c(c1)c(CC(=O)O)c(C)n2C(=O)c1ccc(Cl)cc1 [Indomethacin]
selectivity ratio (in vivo [1]): 5.2
Oedema-inhibiting effect % ([2]; indomethacin 5 mg/kg p.o. alone): 40%
Oedema-inhibiting effect % ([2]; indomethacin 10 mg/kg p.o. alone): 45%
LD50 (in vivo [3]): 12.5 mg/kg
TD50 at 4 h (in vivo [8]): 5 mg/kg
Inhibition of oedema, 3rd day, left (challenged) foot (daily dose 0.65 mg/kg p.o.): 26.7 percentage of control
Inhibition of oedema, 21st day, left foot (daily dose 0.65 mg/kg p.o.): 46.6 percentage of control
Inhibition of oedema, 21st day, right foot (daily dose 0.65 mg/kg p.o.): 47.2 percentage of control
Inhibition of oedema, 3rd day, left (challenged) foot (daily dose 1.25 mg/kg p.o.): 36.3 percentage of control
Inhibition of oedema, 21st day, left foot (daily dose 1.25 mg/kg p.o.): 46.7 percentage of control
Inhibition of oedema, 21st day, right foot (daily dose 1.25 mg/kg p.o.): 35.6 percentage of control
Inhibition of oedema, 3rd day, left (challenged) foot (daily dose 2.50 mg/kg p.o.): 36.8 percentage of control
Inhibition of oedema, 21st day, left foot (daily dose 2.50 mg/kg p.o.): 58.0 percentage of control
Inhibition of oedema, 21st day, right foot (daily dose 2.50 mg/kg p.o.): 72.6 percentage of control
Died animals No. [9, 14]: 33 No.
Ulcerous animals % [9, 14]: 100%
Ulcerous animals No. [9, 14]: 45 No.
ulcers in the intestines of the survivors ([9]; indomethacin only, 20 mg/kg for 3 days, orally): clearly visible ulcers appeared in the intestines of the survivors
mortality at 72 h ([9]; rat, in vivo, po, indomethacin 3 × 20 mg/kg p.o. alone, 3rd day, read-out: Died animals %): 73%
ulcerating potency among non-steroid antiinflammatory agents [10]: most potent ulcerating compound
reduction of indomethacin blood levels [11]: 30-50%
Inhibition of oedema 30 min following carrageenin [5]: 23.6 and 42.3 and 42.7
Inhibition of oedema 180 min following carrageenin [5]: 30.5 and 53.0 and 53.4
Relative intestinal toxicity IUD50/ED50 (A) [5]: 5.8
ED50 at 180 min [5]: 2.4 mg/kg
Relative intestinal toxicity IUD50/ED50 (C) [6]: 3.8
Analgesic ED50 [6]: 3.65 mg/kg
Therapeutical index LD50/ED50 (C) [6]: 3.4
acute toxicity of indomethacin alone relative to combination with Na-salicylate [12]: 72 fold
TD50 at 48 h (in vivo [13]): 14 mg/kg

O=C(O)c1cccnc1Nc1cccc(C(F)(F)F)c1 [Niflumic acid]
main antiphlogistic effects when administered together with sodium salicylate [2]: remain unchanged, or even the antiphlogistic effects of the two active agents are superimposed
ulcerogenic side-effects when administered together with sodium salicylate [7]: can also be antagonized effectively

CCCCC1C(=O)N(c2ccccc2)N(c2ccccc2)C1=O [Phenylbutazone, 4-butyl-1,2-diphenyl-pyrazolidine-3,5-dione]
main antiphlogistic effects when administered together with sodium salicylate [2]: remain unchanged, or even the antiphlogistic effects of the two active agents are superimposed
ulcerogenic side-effects when administered together with sodium salicylate [7]: can also be antagonized effectively
